Patent publication US20250129104A1, “7H-PYRROLO[2,3-D]PYRIMIDINES AND PREPARATION AND USES THEREOF” (BioSplice Therapeutics, Inc., priority 2021, published 2025)

target: recombinant DYRK1A kinase (Homo sapiens (Human), UniProt Q13627); assay: DYRK1A kinase assay (Ser/Thr 18 peptide Z-lyte FRET assay); format: biochemical; details: DYRK1A kinase activity; 15 μM ATP, 1 h room temperature; method text calls the value IC50
Summary of the method: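 FRET Z-lyte read-out (coumarin/fluorescein ratio, % phosphorylation) after 1 h development; IC50 from non-linear curve fit. Reaction: 0.25 μg/mL recombinant human DYRK1A, Ser/Thr 18 peptide 4 μM, ATP 15 μM, compound in 11-point 1:3 series from 10 μM, 1 h, room temperature, duplicate wells.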

SMILES | EC50 [nM]
CN1CCN(C(=O)c2cnn3ccc(-c4c[nH]c5ncnc(NCC6CC6)c45)cc23)CC1 [Compound 1244, (5-(4-((cyclopropylmethyl)amino)-7H-pyrrolo[2,3-d]pyrimidin-5-yl)pyrazolo[1,5-a]pyridin-3-yl)(4-methylpiperazin-1-yl)methanone] | 494
CN(C)C(=O)c1cnn2ccc(-c3c[nH]c4nc(C5CC5)ncc34)cc12 [Compound 1245, 5-(2-Cyclopropyl-7H-pyrrolo[2,3-d]pyrimidin-5-yl)-N,N-dimethylpyrazolo [1,5-a]pyridine-3-carboxamide] | 182
CN(C(=O)c1cnn2ccc(-c3c[nH]c4nc(C5CC5)ncc34)cc12)C1CC(F)(F)C1 [Compound 1379, 5-(2-Cyclopropyl-7H-pyrrolo[2,3-d]pyrimidin-5-yl)-N-(3,3-difluorocyclobutyl)-N-methylpyrazolo[1,5-a]pyridine-3-carboxamide] | 79.8
CC(C)Nc1ncc2c(-c3ccn4ncc(C(=O)NCC5CC(F)(F)C5)c4c3)c[nH]c2n1 [Compound 1428, N-((3,3-Difluorocyclobutyl)methyl)-5-(2-(isopropylamino)-7H-pyrrolo[2,3-d]pyrimidin-5-yl)pyrazolo[1,5-a]pyridine-3-carboxamide] | 11.4
CO[C@H]1CC[C@H](NC(=O)c2cnn3ccc(-c4c[nH]c5nc(C6CC6)ncc45)cc23)CC1 [Compound 1465, 5-(2-Cyclopropyl-7H-pyrrolo[2,3-d]pyrimidin-5-yl)-N-(trans-4-methoxycyclohexyl)pyrazolo[1,5-a]pyridine-3-carboxamide] | 6.7
O=C(NC1CCOCC1)c1cnn2ccc(-c3c[nH]c4nc(C5CC5)ncc34)cc12 [Compound 1551, 5-(2-Cyclopropyl-7H-pyrrolo[2,3-d]pyrimidin-5-yl)-N-(tetrahydro-2H-pyran-4-yl)pyrazolo[1,5-a]pyridine-3-carboxamide] | 7.5
CC(C)Cc1ncc2c(-c3ccn4nccc4n3)c[nH]c2n1 [Compound 1636, 2-Isobutyl-5-(pyrazolo[1,5-a]pyrimidin-5-yl)-7H-pyrrolo[2,3-d]pyrimidine] | 214
CC(C)(C)CNc1ncc2c(-c3ccn4nccc4n3)c[nH]c2n1 [Compound 1646, N-Neopentyl-5-(pyrazolo[1,5-a]pyrimidin-5-yl)-7H-pyrrolo[2,3-d]pyrimidin-2-amine] | 19.1
FC(F)(F)CNc1ncc2c(-c3ccn4nccc4n3)c[nH]c2n1 [Compound 1650, 5-(Pyrazolo[1,5-a]pyrimidin-5-yl)-N-(2,2,2-trifluoroethyl)-7H-pyrrolo[2,3-d]pyrimidin-2-amine] | 19.8
C[C@@H](Nc1ncc2c(-c3ccn4nccc4n3)c[nH]c2n1)C(F)(F)F [Compound 1651, (R)-5-(Pyrazolo[1,5-a]pyrimidin-5-yl)-N-(1,1,1-trifluoropropan-2-yl)-7H-pyrrolo[2,3-d]pyrimidin-2-amine] | 13.2
C[C@H](Nc1ncc2c(-c3ccn4nccc4n3)c[nH]c2n1)C(F)(F)F [Compound 1652, (S)-5-(Pyrazolo[1,5-a]pyrimidin-5-yl)-N-(1,1,1-trifluoropropan-2-yl)-7H-pyrrolo[2,3-d]pyrimidin-2-amine] | 103
FC1(F)CCC(Nc2ncc3c(-c4ccn5nccc5n4)c[nH]c3n2)CC1 [Compound 1663, N-(4,4-Difluorocyclohexyl)-5-(pyrazolo[1,5-a]pyrimidin-5-yl)-7H-pyrrolo [2,3-d]pyrimidin-2-amine] | 9.2
CN1CCC(Nc2ncc3c(-c4ccn5nccc5n4)c[nH]c3n2)CC1 [Compound 1667, N-(1-Methylpiperidin-4-yl)-5-(pyrazolo[1,5-a]pyrimidin-5-yl)-7H-pyrrolo [2,3-d]pyrimidin-2-amine] | 19
CC(C)(F)CNc1ncc2c(-c3ccn4ncc(F)c4n3)c[nH]c2n1 [Compound 1678, N-(2-Fluoro-2-methylpropyl)-5-(3-fluoropyrazolo[1,5-a]pyrimidin-5-yl)-7H-pyrrolo[2,3-d]pyrimidin-2-amine] | 21.1
C[C@@H](Nc1ncc2c(-c3ccn4ncc(F)c4n3)c[nH]c2n1)C(F)(F)F [Compound 1679, (R)-5-(3-Fluoropyrazolo[1,5-a]pyrimidin-5-yl)-N-(1,1,1-trifluoropropan-2-yl)-7H-pyrrolo[2,3-d]pyrimidin-2-amine] | 92.9
C[C@@H](Nc1ncc2c(-c3ccn4ncc(Cl)c4n3)c[nH]c2n1)C(F)(F)F [Compound 1681, (R)-5-(3-Chloropyrazolo[1,5-a]pyrimidin-5-yl)-N-(1,1,1-trifluoropropan-2-yl)-7H-pyrrolo[2,3-d]pyrimidin-2-amine] | 98.8
CN1CCC(CNc2ncc3c(-c4ccc5c(c4)OCCNC5=O)c[nH]c3n2)CC1 [Compound 1758, 8-(2-(((1-Methylpiperidin-4-yl)methyl)amino)-7H-pyrrolo[2,3-d]pyrimidin-5-yl)-3,4-dihydrobenzo[f][1,4]oxazepin-5(2H)-one] | 7.3
CN1CCN(c2cc(Nc3ncc4c(-c5ccc6c(c5)CCCO6)c[nH]c4n3)ccn2)CC1 [Compound 1768, 5-(Chroman-6-yl)-N-(2-(4-methylpiperazin-1-yl)pyridin-4-yl)-7H-pyrrolo [2,3-d]pyrimidin-2-amine] | 34.8
CN1CCC(Nc2ncc3c(-c4ccc5c(c4)OC(C)(C)CC5=O)c[nH]c3n2)CC1 [Compound 1801, 2,2-Dimethyl-7-(2-((1-methylpiperidin-4-yl)amino)-7H-pyrrolo[2,3-d]pyrimidin-5-yl)chroman-4-one] | 66.9
COc1nc(CC(C)C)nc2[nH]cc(-c3ccc4ncccc4c3)c12 [Compound 1857, 6-(2-Isobutyl-4-methoxy-7H-pyrrolo[2,3-d]pyrimidin-5-yl)quinoline] | 42.7
CC(C)(C)CNc1ncc2c(-c3ccc4ncccc4c3)c[nH]c2n1 [Compound 1867, N-Neopentyl-5-(quinolin-6-yl)-7H-pyrrolo[2,3-d]pyrimidin-2-amine] | 69.7
c1cnc2ccc(-c3ncc4c(-c5ccc6ncccc6c5)c[nH]c4n3)cc2c1 [Compound 1896, 6,6′-(7H-pyrrolo[2,3-d]pyrimidine-2,5-diyl)diquinoline] | 15.6
Cn1cc(-c2ncnc3[nH]cc(-c4ccc5ncccc5c4)c23)cn1 [Compound 1897, 6-(4-(1-methyl-1H-pyrazol-4-yl)-7H-pyrrolo[2,3-d]pyrimidin-5-yl)quinoline] | 18.1

The next compounds have a lower EC50 than those just listed; values first:

EC50 [nM] | SMILES
6.1 | c1cc2nc(-c3c[nH]c4nc(NC5CCOCC5)ncc34)ccn2n1 [Compound 1669, 5-(Pyrazolo[1,5-a]pyrimidin-5-yl)-N-(tetrahydro-2H-pyran-4-yl)-7H-pyrrolo [2,3-d]pyrimidin-2-amine]
6 | O=C(NCC1CC(F)(F)C1)c1cnn2ccc(-c3c[nH]c4nc(C5CC5)ncc34)cc12 [Compound 1422, 5-(2-Cyclopropyl-7H-pyrrolo[2,3-d]pyrimidin-5-yl)-N-((3,3-difluorocyclobutyl)methyl)pyrazolo[1,5-a]pyridine-3-carboxamide]
6 | c1cnc2ccc(-c3c[nH]c4nc(NC5CCOCC5)ncc34)cc2c1 [Compound 1890, 5-(Quinolin-6-yl)-N-(tetrahydro-2H-pyran-4-yl)-7H-pyrrolo[2,3-d]pyrimidin-2-amine]
5.9 | CC(F)(F)CNc1ncc2c(-c3ccn4nccc4n3)c[nH]c2n1 [Compound 1649, N-(2,2-Difluoropropyl)-5-(pyrazolo[1,5-a]pyrimidin-5-yl)-7H-pyrrolo[2,3-d]pyrimidin-2-amine]
5.1 | CC(C)(F)CNc1ncc2c(-c3ccn4ncc(C5CC5)c4n3)c[nH]c2n1 [Compound 1695, 5-(3-Cyclopropylpyrazolo[1,5-a]pyrimidin-5-yl)-N-(2-fluoro-2-methylpropyl)-7H-pyrrolo[2,3-d]pyrimidin-2-amine]
4.1 | CN1CCN(c2cccc(Nc3ncc4c(-c5ccc6ncccc6c5)c[nH]c4n3)c2)CC1 [Compound 1891, N-(3-(4-Methylpiperazin-1-yl)phenyl)-5-(quinolin-6-yl)-7H-pyrrolo[2,3-d]pyrimidin-2-amine]
4 | CC(C)(F)CNc1ncc2c(-c3ccc4ncccc4c3)c[nH]c2n1 [Compound 1869, N-(2-Fluoro-2-methylpropyl)-5-(quinolin-6-yl)-7H-pyrrolo[2,3-d]pyrimidin-2-amine]
3.6 | CN1CCN(c2ccc(CNc3ncc4c(-c5ccc6ncccc6c5)c[nH]c4n3)cn2)CC1 [Compound 1895, N-((6-(4-Methylpiperazin-1-yl)pyridin-3-yl)methyl)-5-(quinolin-6-yl)-7H-pyrrolo[2,3-d]pyrimidin-2-amine]
3.4 | CN1CCC(NC(=O)c2cnn3ccc(-c4c[nH]c5nc(N)ncc45)cc23)CC1 [Compound 1511, 5-(2-amino-7H-pyrrolo[2,3-d]pyrimidin-5-yl)-N-(1-methylpiperidin-4-yl)pyrazolo[1,5-a]pyridine-3-carboxamide]
2.9 | Nc1ncc2c(-c3ccc4ncccc4c3)c[nH]c2n1 [Compound 1862, 5-(Quinolin-6-yl)-7H-pyrrolo[2,3-d]pyrimidin-2-amine]
2.9 | CNc1ncc2c(-c3ccc4ncccc4c3)c[nH]c2n1 [Compound 1863, N-Methyl-5-(quinolin-6-yl)-7H-pyrrolo[2,3-d]pyrimidin-2-amine]
2.3 | CN1CCN(c2ccc(Nc3ncc4c(-c5ccc6ncccc6c5)c[nH]c4n3)cn2)CC1 [Compound 1894, N-(6-(4-Methylpiperazin-1-yl)pyridin-3-yl)-5-(quinolin-6-yl)-7H-pyrrolo [2,3-d]pyrimidin-2-amine]
0.8 | c1cnc2ccc(-c3c[nH]c4nc(Nc5ccncc5)ncc34)cc2c1 [Compound 1892, N-(pyridin-4-yl)-5-(quinolin-6-yl)-7H-pyrrolo[2,3-d]pyrimidin-2-amine]
0.5 | CN1CCN(c2cc(Nc3ncc4c(-c5ccc6ncccc6c5)c[nH]c4n3)ccn2)CC1 [Compound 1893, N-(2-(4-Methylpiperazin-1-yl)pyridin-4-yl)-5-(quinolin-6-yl)-7H-pyrrolo [2,3-d]pyrimidin-2-amine]
